Experimental findings from patent US11584742B2 (MASARYKOVA UNIVERZITA, priority 2018, dated 2023) are described below.

One assay concerns the target T1, MRE11 (Homo sapiens, UniProt P49959).
T1 sequence (P49959 1-708): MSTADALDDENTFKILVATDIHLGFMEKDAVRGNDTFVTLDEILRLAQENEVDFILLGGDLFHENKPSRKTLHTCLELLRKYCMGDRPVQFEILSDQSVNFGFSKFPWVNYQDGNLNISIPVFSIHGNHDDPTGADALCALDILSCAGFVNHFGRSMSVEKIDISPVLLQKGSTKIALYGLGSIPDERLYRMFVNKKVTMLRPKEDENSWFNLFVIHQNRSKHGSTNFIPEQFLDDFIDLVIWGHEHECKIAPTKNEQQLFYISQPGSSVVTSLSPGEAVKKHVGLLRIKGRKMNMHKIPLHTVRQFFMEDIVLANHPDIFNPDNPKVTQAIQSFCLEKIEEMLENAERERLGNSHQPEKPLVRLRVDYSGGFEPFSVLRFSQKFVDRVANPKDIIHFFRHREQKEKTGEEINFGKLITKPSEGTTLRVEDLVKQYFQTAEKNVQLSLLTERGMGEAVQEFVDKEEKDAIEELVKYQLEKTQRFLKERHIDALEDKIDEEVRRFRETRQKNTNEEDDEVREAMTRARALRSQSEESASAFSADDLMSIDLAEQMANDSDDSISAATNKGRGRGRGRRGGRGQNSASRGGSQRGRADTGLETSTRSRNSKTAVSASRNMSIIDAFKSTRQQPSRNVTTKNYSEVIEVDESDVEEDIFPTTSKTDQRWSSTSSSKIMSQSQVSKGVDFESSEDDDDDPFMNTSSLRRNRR
The experiment in a line: HTS nuclease assay (cleavage of CY5/BBQ-quenched 5' overhang DNA substrate). The settings on record: in vitro HTS nuclease assay; 18 nM MRE11, 40 nM DNA substrate; analysis at t=4 h. It is filed as biochemical. How it is done:
DNA Substrate Preparation
The DNA substrate is prepared by mixing the oligonucleotides listed below in a 1:1 ratio to reach a final concentration of 6 μM in a buffer containing 50 mM Tris pH 7.5, 100 mM NaCl and 8 mM MgCl2.
This substrate is a 5′ overhang, which is a preferred substrate of MRE11. […] The fluorescence increases upon substrate cleavage by MRE11, when separation of the two labels occur.
The conditions of the assay are as follows:
Total reaction volume: 5 μL
DNA substrate concentration in the reaction: 40 nM
Inhibitor concentration range tested: 7 nM-50 μM
Each plate contains a series of high and low signal control wells, where no compound is added:
High signal: MRE11+DNA substrate
Low signal: DNA substrate only
These are used during data evaluation.
Two extra assay controls:
1) To check whether unwinding of DNA by the compounds alone occurs.
The DNA substrate [CY5+BBQ(650)] is mixed with the compounds with no protein present.
The CY5 single stranded oligo is mixed with the compounds with no protein present.
The layout of the plates is created by the in-house software (CZ-Openscreen Prague) and this information is transferred to the robotic HTS station.
The reaction is started by the addition of DNA and the reaction time is counted from that moment, including a 15 min delay. Ten timepoints are measured:
The assay data analysis was performed at t=4 h. This corresponds to the time when the reaction is close to its maximum.
The data analysis was performed using the in-house software to obtain IC50 for each compound.

The subject of another assay is DR-GFP U2OS cells. Put plainly: HR assay (GFP fluorescence after I-SceI transfection, flow cytometry). The settings on record: Homo sapiens, inhibitor at 25 μM, 72 hours after transfection. Format: cell-based. The method, then: DR-GFP U2OS cells (Methods in Molecular Biology 2012, 920, 379.) were transfected with 2.5 μg of I-SceI-expressing pCAGGS vector and treated with the inhibitors at 25 μM concentration. 72 hours after the transfection, the cells were trypsinized and resuspended in 3% BSA in PBS. GFP fluorescence detection was carried out using a BD FACSVerse flow cytometer and data analyzed with FlowJo software.
On the technique in general: Flow cytometry measures light scatter and fluorescence of single cells or particles in a stream.

The molecule `N#C/C(=C\c1ccc(O)c(O)c1)C(=O)Nc1nc(-c2cccc(F)c2)cs1` [Preparative Example 236, (E)-2-cyano-3-(3,4-dihydroxyphenyl)-N-(4-(3-fluorophenyl)thiazol-2-yl)acrylamide] came in with an IC50 against MRE11 below 2 µM. The inhibition at 25 µM in the assay on DR-GFP U2OS cells lay within 50 to 75%.

The molecule `N#C/C(=C\c1ccc2cn[nH]c2c1)C(=O)Nc1nc(-c2ccccc2)cs1` [Preparative Example 205, (E)-2-cyano-3-(1H-indazol-6-yl)-N-(4-phenylthiazol-2-yl)acrylamide] had an IC50 on MRE11 of 2 to 10 µM. The same molecule showed an inhibition at 25 µM in the assay on DR-GFP U2OS cells below 50%.

Consider `N#C/C(=C\c1ccc(O)c(O)c1)C(=O)Nc1nc(-c2ccc(Oc3ccccc3)cc2)cs1` [Preparative Example 172, (E)-2-cyano-3-(3,4-dihydroxyphenyl)-N-(4-(4-phenoxyphenyl)thiazol-2-yl)acrylamide], for which the IC50 on MRE11 was 2 to 10 µM. Besides, the inhibition at 25 µM in the assay with DR-GFP U2OS cells is above 75%.

Regarding `N#C/C(=C\c1ccc(C(=O)O)cc1)C(=O)Nc1nc(-c2ccccc2)cs1` [Preparative Example 204, (E)-4-(2-cyano-3-oxo-3-((4-phenylthiazol-2-yl)amino)prop-1-en-1-yl)benzoic acid], the 50% inhibitory concentration (IC50) at MRE11 lay in the range of 2 to 10 µM. The inhibition at 25 µM in the assay with DR-GFP U2OS cells was below 50%.

The molecule `N#C/C(=C\c1ccc(O)c(Cl)c1)C(=O)Nc1nc(-c2ccccc2)cs1` [Preparative Example 201, (E)-3-(3-chloro-4-hydroxyphenyl)-2-cyano-N-(4-phenylthiazol-2-yl)acrylamide] returned an IC50 against MRE11 of 2 to 10 µM. This molecule also came in with an inhibition at 25 µM in the assay with DR-GFP U2OS cells of 50 to 75%.

As to `N#C/C(=C\c1ccc(O)c(O)c1)C(=O)Nc1nc(-c2ccccc2)c(Cl)s1` [Preparative Example 195, (E)-N-(5-chloro-4-phenylthiazol-2-yl)-2-cyano-3-(3,4-dihydroxyphenyl)acrylamide], the IC50 on MRE11 was below 2 µM. The molecule further displayed an inhibition at 25 µM with DR-GFP U2OS cells of 50 to 75%.

Consider `N#C/C(=C\c1ccc(O)c(O)c1)C(=O)Nc1nc(-c2ccccc2)c(-c2cnccn2)s1` [Preparative Example 238, (E)-2-cyano-3-(3,4-dihydroxyphenyl)-N-(4-phenyl-5-(pyrazin-2-yl)thiazol-2-yl)acrylamide], for which the IC50 against MRE11 is below 2 µM. The inhibition at 25 µM in the assay with DR-GFP U2OS cells lay within 50 to 75%.

On MRE11, `Cc1ccc(-c2csc(NC(=O)/C(C#N)=C/c3ccc(O)c(O)c3)n2)s1` [Preparative Example 229, (E)-2-cyano-3-(3,4-dihydroxyphenyl)-N-(4-(5-methylthiophen-2-yl)thiazol-2-yl)acrylamide] showed an IC50 below 2 µM. In addition, the inhibition at 25 µM in the assay on DR-GFP U2OS cells lay within 50 to 75%.

The molecule `N#C/C(=C\c1ccc(O)c(O)c1)C(=O)Nc1nc(-c2cc(F)cc(F)c2)cs1` [Preparative Example 185, (E)-2-cyano-N-(4-(3,5-difluorophenyl)thiazol-2-yl)-3-(3,4-dihydroxyphenyl)acrylamide] had an IC50 against MRE11 below 2 µM. For the same molecule, the inhibition at 25 µM in the assay on DR-GFP U2OS cells lay in the range of 50 to 75%.

`N#C/C(=C\c1ccc(O)c(O)c1)C(=O)Nc1nc(-c2ccc(C#N)s2)cs1` [Preparative Example 183, (E)-2-cyano-N-(4-(5-cyanothiophen-2-yl)thiazol-2-yl)-3-(3,4-dihydroxyphenyl)acrylamide] gave an IC50 against MRE11 below 2 µM. Also, in the assay with DR-GFP U2OS cells, the inhibition at 25 µM was below 50%.

As to `N#CC(=Cc1c[nH]cn1)C(=O)Nc1nc(-c2ccccc2)cs1` (racemic) [Preparative Example 214, (E)- and (Z)-2-cyano-3-(1H-imidazol-4-yl)-N-(4-phenylthiazol-2-yl)acrylamide], the IC50 on MRE11 was in the range of 10 to 90 µM. The same molecule gave an inhibition at 25 µM in the assay on DR-GFP U2OS cells below 50%.

Molecule `N#C/C(=C\c1ccc([N+](=O)[O-])cc1)C(=O)Nc1nc(-c2ccccc2)cs1` [Preparative Example 209, (E)-2-cyano-3-(4-nitrophenyl)-N-(4-phenylthiazol-2-yl)acrylamide] came in with an IC50 on MRE11 of 10 to 90 µM. The inhibition at 25 µM with DR-GFP U2OS cells is 50 to 75%.

For the molecule `N#C/C(=C\c1cc(F)c(O)c(F)c1)C(=O)Nc1nc(-c2ccccc2)cs1` [Preparative Example 212, (E)-2-cyano-3-(3,5-difluoro-4-hydroxyphenyl)-N-(4-phenylthiazol-2-yl)acrylamide], the IC50 against MRE11 was 10 to 90 µM. The same molecule came in with an inhibition at 25 µM in the assay with DR-GFP U2OS cells below 50%.

Consider `CC(C)(O)c1csc(NC(=O)/C(C#N)=C/c2ccc(O)c(O)c2)n1` [Preparative Example 167, (E)-2-cyano-3-(3,4-dihydroxyphenyl)-N-(4-(2-hydroxypropan-2-yl)thiazol-2-yl)acrylamide], for which, on MRE11, the IC50 lay within 2 to 10 µM. This molecule displayed an inhibition at 25 µM in the assay on DR-GFP U2OS cells below 50%.

`CC(C)(O)c1ccc(-c2csc(NC(=O)/C(C#N)=C/c3ccc(O)c(O)c3)n2)cc1` [Preparative Example 182, (E)-2-cyano-3-(3,4-dihydroxyphenyl)-N-(4-(4-(2-hydroxypropan-2-yl)phenyl)thiazol-2-yl)acrylamide] registered an IC50 at MRE11 below 2 µM. The inhibition at 25 µM in the assay on DR-GFP U2OS cells was in the range of 50 to 75%.

With `CN(C)C(=O)c1ccc(-c2csc(NC(=O)/C(C#N)=C/c3ccc(O)c(O)c3)n2)cc1` [Preparative Example 181, (E)-4(2-(2-cyano-3-(3,4-dihydroxyphenyl)acrylamido)thiazol-4-yl)-N,N-dimethylbenzamide], at MRE11, the IC50 is below 2 µM. Also, in the assay with DR-GFP U2OS cells, the inhibition at 25 µM was below 50%.

`N#C/C(=C\c1ccc(O)c(O)c1)C(=O)Nc1nc(-c2ccccc2Br)cs1` [Preparative Example 170, (E)-N-(4-(2-bromophenyl)thiazol-2-yl)-2-cyano-3-(3,4-dihydroxyphenyl)acrylamide] displayed an IC50 against MRE11 below 2 µM. The molecule further returned an inhibition at 25 µM with DR-GFP U2OS cells of 50 to 75%.

In the assay with DR-GFP U2OS cells, `Cc1cc(/C=C(\C#N)C(=O)Nc2nc(-c3ccccc3)cs2)ccc1O` [Preparative Example 217, (E)-2-cyano-3-(4-hydroxy-3-methylphenyl)-N-(4-phenylthiazol-2-yl)acrylamide] registered an inhibition at 25 µM of 50 to 75%.

`CC(C)(C)c1cc(/C=C(\C#N)C(=O)Nc2nc(-c3ccccc3)cs2)ccc1O` [Preparative Example 235, (E)-3-(3-(tert-butyl)-4-hydroxyphenyl)-2-cyano-N-(4-phenylthiazol-2-yl)acrylamide]: in the assay with DR-GFP U2OS cells, the inhibition at 25 µM was above 75%.

In the assay with DR-GFP U2OS cells, `CC(C)c1cc(/C=C(\C#N)C(=O)Nc2nc(-c3ccccc3)cs2)cc(C(C)C)c1O` [Preparative Example 237, (E)-2-cyano-3-(4-hydroxy-3,5-diisopropylphenyl)-N-(4-phenylthiazol-2-yl)acrylamide] displayed an inhibition at 25 µM above 75%.

As to `Cc1cc(/C=C(\C#N)C(=O)Nc2nc(-c3ccc(OC(F)(F)F)cc3)cs2)cc(C)c1O` [Preparative Example 177, (E)-2-cyano-3-(3,5-dimethyl-4-hydroxyphenyl)-N-(4-(4-(trifluoromethoxy)phenyl)thiazol-2-yl)acrylamide], in the assay on DR-GFP U2OS cells, the inhibition at 25 µM was above 75%.

Consider `CC(C)(C)c1cc(/C=C(\C#N)C(=O)Nc2nc(-c3ccccc3)cs2)cc(C(C)(C)C)n1` [Preparative Example 240, (E)-2-cyano-3-(2,6-di-tert-butylpyridin-4-yl)-N-(4-phenylthiazol-2-yl)acrylamide], for which the inhibition at 25 µM with DR-GFP U2OS cells was above 75%.

Take `N#C/C(=C\c1ccc(O)cc1O)C(=O)Nc1nc(-c2ccccc2)cs1` [Preparative Example 218, (E)-2-cyano-3-(2,4-dihydroxyphenyl)-N-(4-phenylthiazol-2-yl)acrylamide]: the inhibition at 25 µM with DR-GFP U2OS cells lay within 50 to 75%.

Molecule `Cc1cc(/C=C(\C#N)C(=O)Nc2nc(-c3ccccc3)cs2)cc(C(C)(C)C)c1O` [Preparative Example 234, (E)-3-(3-(tert-butyl)-4-hydroxy-5-methylphenyl)-2-cyano-N-(4-phenylthiazol-2-yl)acrylamide] displayed an inhibition at 25 µM in the assay with DR-GFP U2OS cells above 75%.

For the molecule `CC(C)(C)c1cc(/C=C(\C#N)C(=O)Nc2nc(-c3ccc(OC(F)(F)F)cc3)cs2)cc(C(C)(C)C)c1O` [Preparative Example 221], the inhibition at 25 µM in the assay on DR-GFP U2OS cells is below 50%.

What is called IC50 is the concentration that gives 50% inhibition. Read a high IC50 as weaker potency in that assay. As a reminder, the inhibition is the relative decrease from the control value, in per cent. A low value points to a response near the control.
